System: sclerodermatous cGvHD in BALB/c (H-2d) mice
Test: Murine sclerodermatous chronic graft-versus host disease (cGvHD)
Type: in vivo
Conditions: 10 mg/kg b.i.d., day 21 to day 56 post transplantation
Excerpt: 5.10. Murine Sclerodermatous Chronic Graft-Versus Host Disease (cGvHD)
In this cGvHD model, fibrosis is induced in BALB/c (H-2d) mice by allogeneic transplantation of bone marrow cells and splenocytes from B10.D2 (H-2d) donor mice (minor HLA mismatch). The recipient mice develop inflammation-driven dermal and pulmonary fibrosis resembling patients with rapidly progressive diffuse cutaneous systemic sclerosis. (Zerr et al., 2012)
The treatment is provided only after the onset of first clinical symptoms of sclerodermatous cGvHD. […]
The anti-fibrotic effects on skin were analysed by determination of dermal thickness, quantification of lesional collagen and staining for myofibroblasts.
In case of positive effects on skin fibrosis, effects on pulmonary fibrosis were analysed by Ashcroft scoring, by hydroxyproline content and by quantification of the collagen covered area using SirCol staining.
Based on individual animal raw data, the means for each group were determined and percent change from disease controls was calculated. Treatment groups were compared to disease controls using a one-way analysis of variance (1-way ANOVA) with a Dunnett's post-hoc analysis for measured (parametric) data or a Kruskal-Wallis test with a Dunn's post-hoc analysis for scored (non-parametric) data.

COc1cn2nc(CCC(C)(C)O)cc2cc1NC(=O)c1cccn(C2CC2)c1=O [Compound 1, 1-cyclopropyl-N-[2-(3-hydroxy-3-methylbutyl)-6-methoxypyrazolo[1,5-a]pyridin-5-yl]-2-oxopyridine-3-carboxamide]
effect on Lung fibrosis (Ashcroft, SirCol): statistically significant effect | effect on skin fibrosis (Hydroxyproline): statistically significant effect
